# Reference: paper PMC12717099, “Peptidoglycan recruitment by a penicillin binding protein” (Nature Communications, 2025)
# Experiments:
# [1] = system: E. faecium D344SRF pCWR624 (PBP5 plasmid); assay: Disk diffusion assay, pCWR624; type: cell-based, Enterococcus faecium; conditions: strain pCWR624; 37 °C, 24 h; n=3
# Experimental: (§1) The synthetic genes were purchased from GeneWiz (South Plainfield, NJ). The ribosome binding site sequence AGGAGG (Shine-Dalgarno), and a string of five A’s followed by the sequence […], that corresponds to the first 15 bp found in pbp5 from E. faecium C68 were added upstream of the START codon. The terminator sequence […] was added downstream of the STOP codon. BamHI restriction sites were added to the flanking 5′ and 3′ ends. The synthetic genes were inserted into the vector pCWR624Δpbp5. This vector was derived from pCWR624[10], in which the pbp5 gene from D366 was excised by digestion with BamHI followed by re-ligation of the vector, allowing subsequent insertion of modified synthetic pbp5s into the BamHI site downstream of ftsWEfm and psr from E. faecium C68[10]. The synthetic genes were inserted in a BamHI site located downstream of psr. The proper orientation was confirmed by PCR amplification using the forward primer OR_pbp5_FOR_1 (5′-[…]-3′) and the reverse primer OR_pbp5_REV_1 (5′-[…]-3′). Plasmids were sequence verified for the specific binding site mutations. The resulting constructions were electroporated into the natural pbp5(-) mutant E. faecium D344SRF with a selection on brain heart infusion agar (BHI) plates containing kanamycin (1500 µg/ml).
# (§2) E. faecium strains were streaked fresh from −80 °C stored glycerol stocks onto brain heart infusion (BHI) agar plates and incubated for 18 h at 37 °C. Strains harboring the plasmid derivatives were grown under antibiotic pressure on agar plates containing kanamycin at 1500 µg/ml. A single colony was inoculated into BHI or BHI-kanamycin (1500 µg/ml) for overnight cultures (18 h).
# (§3) Antibiotic disks used were manufactured by BD BBL^TM. Disk diffusion assays were performed according to the Clinical and Laboratory Standards Institute (CLSI) guidance. Overnight cultures were inoculated into 3 ml of BHI or BHI-kanamycin (1500 µg/ml) broth with a dilution of 1:100 and incubated until an OD600 of ~0.5 was reached. […] The plates were incubated at 37 °C and the zones of inhibition were measured after 24 h. […]
# [2] = system: E. faecium D344SRF pCWR624Δpbp5_pbp5_V1; assay: Disk diffusion assay, pbp5_V1; type: cell-based, Enterococcus faecium; conditions: strain pbp5_V1 (N523A); 37 °C, 24 h; n=3
# Experimental: as §1, §2, §3
# [3] = system: E. faecium D344SRF, Wild Type; assay: MIC by broth microdilution, Wild Type; type: cell-based, Enterococcus faecium; conditions: strain Wild Type; BHI broth microdilution, 37 °C, 20 h, read by eye; n=3
# Experimental: as §2
# MIC determination was performed using a standard broth microdilution technique in duplicate from independent cultures. Overnight cultures were inoculated into 3 ml of BHI or BHI-kanamycin (1500 µg/ml) broth in a dilution of 1:100 and incubated until an OD600 of ~0.5 was reached. Cultures were diluted 1:1000 and inoculated into the 96-well plates with the corresponding antibiotics to be tested. Plates were incubated at 37 °C for 20 h and read by eye. The MICs were defined as the lowest antibiotic concentration that inhibited growth.
# PBP2B = assay: 1D 1H STD NMR of SP2 with PBP2B; type: binding, E. faecalis; conditions: for STD amplification factor, 2000: protein:peptide 1:100, 2 s saturation
# Source text: Total saturation time for STD measurements was 2 s.
# Overlapped peaks were completely excluded from the analysis.
compound,measurement,setting,value
"CO/N=C(\C(=O)N[C@@H]1C(=O)N2C(C(=O)O)=C(CSc3nc(=O)c(=O)[nH]n3C)CS[C@H]12)c1csc(N)n1 [Ceftriaxone, ceftriaxone]",Zone Size (mm) [Range],[1],0 [0] mm
same,Zone Size (mm) [Range],[2],0 [0] mm
same,MIC (µg/ml) [Range],[3],50 [25-100] µg/ml
D-Lac-L-Ala-D-iGln-L-Lys(D-iAsn) [SP2],STD % to SP1,PBP2B; 1H DLacβ,24.9553%
same,STD amplification factor as fraction of highest SP1:PBP5 value,PBP2B; 1H DLacβ,0.2496
same,"STD amplification factor, 2000",PBP2B; 1H DLacβ,6.715
same,STD % to SP1,PBP2B; 1H DQ2β (first listed),52.517%
same,STD amplification factor as fraction of highest SP1:PBP5 value,PBP2B; 1H DQ2β (first listed),0.5252
same,"STD amplification factor, 2000",PBP2B; 1H DQ2β (first listed),14.1315
same,STD % to SP1,PBP2B; 1H DQ2β (second listed),59.0483%
same,STD amplification factor as fraction of highest SP1:PBP5 value,PBP2B; 1H DQ2β (second listed),0.5905
same,"STD amplification factor, 2000",PBP2B; 1H DQ2β (second listed),15.8889
same,STD % to SP1,PBP2B; 1H DQ2γ,22.6012%
same,STD amplification factor as fraction of highest SP1:PBP5 value,PBP2B; 1H DQ2γ,0.226
same,"STD amplification factor, 2000",PBP2B; 1H DQ2γ,6.082
same,STD % to SP1,PBP2B; 1H K3α,41.2007%
same,STD amplification factor as fraction of highest SP1:PBP5 value,PBP2B; 1H K3α,0.412
same,"STD amplification factor, 2000",PBP2B; 1H K3α,11.0865
same,STD % to SP1,PBP2B; 1H K3β,85.7339%
same,STD amplification factor as fraction of highest SP1:PBP5 value,PBP2B; 1H K3β,0.8573
same,"STD amplification factor, 2000",PBP2B; 1H K3β,23.0696
same,STD % to SP1,PBP2B; 1H K3γ,40.677%
same,STD amplification factor as fraction of highest SP1:PBP5 value,PBP2B; 1H K3γ,0.4068
same,"STD amplification factor, 2000",PBP2B; 1H K3γ,10.9455
same,STD % to SP1,PBP2B; 1H K3δ,54.3796%
same,STD amplification factor as fraction of highest SP1:PBP5 value,PBP2B; 1H K3δ,0.5438
same,"STD amplification factor, 2000",PBP2B; 1H K3δ,14.6327
same,STD % to SP1,PBP2B; 1H K3ε,13.0751%
same,STD amplification factor as fraction of highest SP1:PBP5 value,PBP2B; 1H K3ε,0.1308
same,"STD amplification factor, 2000",PBP2B; 1H K3ε,3.518
same,STD % to SP1,PBP2B; 1H LA1α,44.8726%
same,STD amplification factor as fraction of highest SP1:PBP5 value,PBP2B; 1H LA1α,0.4487
same,"STD amplification factor, 2000",PBP2B; 1H LA1α,12.0745
same,STD % to SP1,PBP2B; 1H LA1β,28.2398%
same,STD amplification factor as fraction of highest SP1:PBP5 value,PBP2B; 1H LA1β,0.2824
same,"STD amplification factor, 2000",PBP2B; 1H LA1β,7.599
same,STD % to SP1,"PBP2B; 1H iNα,DQ2α",20.0674%
same,STD amplification factor as fraction of highest SP1:PBP5 value,"PBP2B; 1H iNα,DQ2α",0.2007
same,"STD amplification factor, 2000","PBP2B; 1H iNα,DQ2α",5.4
same,STD % to SP1,PBP2B; 1H iNβ,22.5751%
same,STD amplification factor as fraction of highest SP1:PBP5 value,PBP2B; 1H iNβ,0.2258
same,"STD amplification factor, 2000",PBP2B; 1H iNβ,6.075
